Laboratory results taken from patent publication US20240398775A1, “PHARMACEUTICAL COMPOSITION FOR USE IN TREATING COGNITIVE DECLINE OR FOR USE IN TREATING OVERWEIGHT OR OBESITY” (University of the Ryukyus, priority 2021, published 2024).

Columns and labels:
NMDA receptor (NMDAR) = assay: Ca2+ imaging (Fluo-3) of hippocampal brain slices, NMDA + glycine application (NMDA reaction); assay type: cell-based, mouse
[1] = system: GluA2 mRNA / (GluA1+GluA3+GluA4 mRNA); assay: qRT-PCR of AMPAR/NMDAR subunits in hippocampal regions, Ca2+ permeability index; assay type: in vivo, mouse
Experimental: Hippocampal slices of 17 to 18 week old male C57BL/6J background mice (CD, HFD, and HFD with PER treatment) or 12 to 13 week old ob/ob mice (ob/ob, and ob/ob with PER treatment) were prepared as previously reported (56, 57). After preparing and collecting hippocampal slices, CA1, CA2, CA3, DG, and EC regions were separated from hippocampal slices using a dissection knife from […] background mice and ob/ob mice, respectively. The CA1, CA2, CA3, DG, and EC regions of mice were separated and immediately lysed in disposable homogenization tube BioMasher2 (trademark) (Nippi, Tokyo, Japan) using 0.5 mL of TRIzol RNA isolation reagent (Thermo Fisher Scientific, Wilmington, DE). Total RNA was individually extracted from each region according to the remaining protocol of the TRIzol RNA isolation reagent provided by the manufacturer (Thermo Fisher Scientific, Wilmington, DE). 1 μg of total RNA was reverse transcribed using PrimeScript RT Reagent Kit (Takara, Shiga, Japan). An aliquot of the obtained CDNA was diluted 1:10 and added to a master mix of TB Green Premix ExTaq (Takara, Shiga, Japan), and real-time PCR was performed using a 7500 Fast Real-Time PCR system (Applied Biosystems, Foster City, CA, USA) according to the manufacturer's instructions. The conditions for real-time PCR were as follows. 40 cycles of 95° C. for 30 seconds, then 95° C. for 5 seconds and 60° C. for 34 seconds. The fluorescence intensity was measured for each annealing step and the threshold cycle time was determined using 7500 software. In addition, relative expression levels of β-actin were normalized to respective controls (vehicle group). The relative expression level of the target gene in each sample was determined using a standard curve and further normalized to the expression level of β-actin of the same sample. The sequences of primers and probes for these genes are shown in Supplemental Table 2. The “ratio of GluA2 mRNA amount/(GluA1+GluA3+GluA4 mRNA amount” was used as a Ca^2+ permeability index.
GluA2 is edited at the Q/R site within the reentry M2 membrane loop region by adenosine deaminase (ADAR2), which acts on RNA type 2 involved in editing double-stranded RNA from adenosine (A) to inosine (I) (review, refer to 15, 16 and 17). Attempts were made to determine real-time quantitative reverse transcription polymerase chain reaction (qRT-PCR), subunit composition of AMPAR and NMDAR. Total RNA in hippocampal subregions (CA1, CA3, DG, EC) was separated, and quantitative analysis of mRNA of GluA1, GluA2, GluA3, and GluA4 for AMPAR, and GluN1, GluN2A, GluN2B, and GluN2C for NMDAR was performed by qRT-PCR. […] Based on the mRNA amount of each subunit, the ratio of GluA2 to other GluA subunits (FIG. 2B) was determined. The ratio was defined as a Ca^2+ permeability index.

[2] = system: hippocampus and body weight of a person; assay: Perampanel in an obese person: brain MRI, body weight, BMI; assay type: in vivo, human; conditions: for BMI: 26 w after surgery / 26 weeks of PER administration, before: 37.7
Experimental: The effect of an AMPA receptor antagonist on the hippocampus and body weight of a person with a BMI value of 38 was investigated. A person had quadriplegia and respiratory disorders due to a large foramen magnum tumor. After the tumor extraction, anti-epileptic treatment was performed. As an anti-epileptic treatment, 2 mg/day (thereafter, the dose was changed to 4 mg/day) of perampanel was orally administered. The transition of the body weight and the Fugl-meyer assessment score of the lower limb was observed. In addition, the size of the hippocampus was evaluated from MRI of the brain of the at 26 weeks after surgery.

Aβ42/Aβ40 = Aβ42/Aβ40 ratio of neurosphere culture supernatant by EIA; assay type: cell-based; conditions: neurospheres from NL-G-F(−/−) mouse embryonic hippocampus, perampanel 50 μM, day 2 and day 4 of culture
Excerpt: Biomarkers of Alzheimer's dementia include the Aβ42/Aβ40 ratio of cerebrospinal fluid (CSF) and plasma levels, phosphorylated tau (P-tau) in threonines 181 and 217, and neurofilament lite (NfL) (Curr Opin Neurol 2021 1 266-274). The Aβ42/Aβ40 ratio is considered to be able to predict Aβ accumulation in PET (Doecke J D et al., Neurology 2020). Hippocampus on 17 to 19 days of NL-G-F(−/−) mouse embryonic life was taken out and cultured by a Neurosphere method by Brewer G J et al. (Nat Protoc 2007 2, 1490-1498), and a supernatant was measured by an EIA method using this culture system. The change in the Aβ42/Aβ40 ratio by the perampanel (50 μM/methyl cellulose 4 μL) was analyzed. In 4 μL of a 0.5 w/v % aqueous solution of methyl cellulose 400, 5×10^4 spheres smaller than 50 μm in diameter were cultured in 50 ml Falcon Flask coated with poly-D-lysine/laminin, and Aβ42 and Aβ40 of the supernatant were measured by EIA method on the second day (FIG. 29A) and the fourth day (FIG. 29B) of culture. The solvent was administered 12 hours after seeding.

Aβ = Aβ staining of neurosphere culture; assay type: cell-based, mouse; conditions: neurospheres from NL-G-F(−/−) mice, fourth day of culture, perampanel group
[3] = HFD-fed mice with oral PER 5 mg/kg/day, NMDA 50 μM + glycine 10 μM, N = 5
[4] = HFD-fed mice with PER, ratio GluA2 mRNA/(GluA1+GluA3+GluA4 mRNA), N = 5

N#Cc1ccccc1-c1cc(-c2ccccn2)cn(-c2ccccc2)c1=O [PER, 3-(2-cyanophenyl)-5-(2-pyridyl)-1-phenyl-1,2-dihydropyridine-2-one]
NMDA reaction CA1 (maximum value of NF525) (NMDA receptor (NMDAR); [3]): 1.20 ± 0.08
NMDA reaction CA2 (maximum value of NF525) (NMDA receptor (NMDAR); [3]): 1.20 ± 0.09
NMDA reaction CA3 (maximum value of NF525) (NMDA receptor (NMDAR); [3]): 1.12 ± 0.04
NMDA reaction DG (maximum value of NF525) (NMDA receptor (NMDAR); [3]): 1.17 ± 0.04
NMDA reaction EC (maximum value of NF525) (NMDA receptor (NMDAR); [3]): 1.16 ± 0.06
signal transduction via the NMDAR (NMDA receptor (NMDAR); hippocampal slices from mice fed HFD and PER 5 mg/kg/day orally by hydrogel): simultaneously restored
NMDAR function in all hippocampal subregions (NMDA receptor (NMDAR); ob/ob mice, PER administration, p<0.05): restoration of NMDAR function
Ca2+-permeability index CA1 [1, 4]: 0.29 ± 0.11
Ca2+-permeability index CA3 [1, 4]: 0.26 ± 0.10
Ca2+-permeability index DG [1, 4]: 0.22 ± 0.06
Ca2+-permeability index EC [1, 4]: 0.30 ± 0.05
Ca2+ permeability index via CA1, CA3, DG and EC ([1]; HFD-fed mice, PER administration, N=5): returned to CD-fed mouse levels
GluA2 mRNA expression in CA1 ([1]; mice fed HFD with PER, qRT-PCR, p<0.05): significant increase
body weight of the person ([2]; obese person after administration): decreased smoothly
BMI ([2]; obese person): 31
BMI ([2]; obese person, listed as AMPA receptor antagonist): 33.4
gray matter/TIV ([2]; obese person, 26 w after surgery, oral perampanel 2 then 4 mg/day): 0.50 L/L
size of the hippocampus (MRI) ([2]; obese person, 26 weeks after surgery, PER administration): clearly increased
Aβ42/Aβ40 ratio of the culture supernatant (Aβ42/Aβ40): significantly increased
Aβ staining of culture (Aβ): decrease in Aβ
